Data: BindingDB's records for PubMed 21481795 (Tufts Medical Center)

How the values were obtained:
[1] = target: Serine/threonine-protein kinase OSR1 (OXSR1) (Homo sapiens) (UniProt O95747); assay: Inhibition of human OSR1 preincubated for 2 hrs followed by ATP addition and measured every 2 mins for […] by spectrophotometric analysis
[2] = target: 3-phosphoinositide-dependent protein kinase 1 (PDPK1) (Homo sapiens) (UniProt O15530); assay: Inhibition of human wild type PDK1 using bio-4xCHKT as substrate preincubated for 2 hrs followed by ATP addition and measured every 2 mins for […] by spectrophotometric analysis
[3] = target: Tyrosine-protein kinase Tec (Homo sapiens) (UniProt P42680); assay: Inhibition of human wild type TEC using PolyEY as substrate preincubated for 2 hrs followed by ATP addition and measured every 2 mins for […] by spectrophotometric analysis
Sequence of Tyrosine-protein kinase Tec (Homo sapiens) (P42680 whole entry, looked up): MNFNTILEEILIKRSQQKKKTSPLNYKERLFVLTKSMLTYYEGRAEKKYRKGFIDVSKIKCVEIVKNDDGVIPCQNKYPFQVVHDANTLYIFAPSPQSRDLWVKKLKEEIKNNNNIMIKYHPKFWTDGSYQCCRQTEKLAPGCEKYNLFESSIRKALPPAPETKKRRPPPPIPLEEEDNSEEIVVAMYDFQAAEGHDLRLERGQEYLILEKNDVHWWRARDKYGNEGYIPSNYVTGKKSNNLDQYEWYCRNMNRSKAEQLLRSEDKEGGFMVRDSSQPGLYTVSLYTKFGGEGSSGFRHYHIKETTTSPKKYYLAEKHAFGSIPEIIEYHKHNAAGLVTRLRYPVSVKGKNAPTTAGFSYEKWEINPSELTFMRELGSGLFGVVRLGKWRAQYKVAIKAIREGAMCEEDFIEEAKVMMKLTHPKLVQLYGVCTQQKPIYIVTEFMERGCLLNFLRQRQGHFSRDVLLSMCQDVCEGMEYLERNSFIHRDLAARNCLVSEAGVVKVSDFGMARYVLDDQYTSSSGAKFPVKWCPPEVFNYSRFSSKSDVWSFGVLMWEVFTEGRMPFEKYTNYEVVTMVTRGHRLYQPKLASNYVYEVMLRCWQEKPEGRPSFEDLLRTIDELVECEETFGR

Sequence of Serine/threonine-protein kinase OSR1 (OXSR1) (Homo sapiens) (O95747 whole entry, looked up): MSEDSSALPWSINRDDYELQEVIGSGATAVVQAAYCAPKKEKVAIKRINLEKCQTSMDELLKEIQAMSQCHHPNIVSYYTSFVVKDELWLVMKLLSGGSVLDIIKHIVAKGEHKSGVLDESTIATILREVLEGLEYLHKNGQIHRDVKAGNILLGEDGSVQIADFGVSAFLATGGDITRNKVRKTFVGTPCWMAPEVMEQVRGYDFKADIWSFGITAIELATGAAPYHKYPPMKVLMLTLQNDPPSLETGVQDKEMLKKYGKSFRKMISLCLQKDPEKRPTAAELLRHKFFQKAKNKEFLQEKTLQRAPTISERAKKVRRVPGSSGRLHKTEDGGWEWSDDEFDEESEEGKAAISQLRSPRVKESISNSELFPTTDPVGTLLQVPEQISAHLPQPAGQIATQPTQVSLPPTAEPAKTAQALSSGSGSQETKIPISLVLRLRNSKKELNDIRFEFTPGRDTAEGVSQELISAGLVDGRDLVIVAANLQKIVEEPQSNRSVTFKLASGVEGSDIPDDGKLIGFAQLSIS

IC50 [1]: > 1 µM
IC50 [2]: > 1 µM
IC50 [3]: > 1 µM
SMILES: CNC(=O)c1cc(Oc2ccc(NC(=O)Nc3cc(C(C)(C)C)nn3-c3ccc4ncccc4c3)c(F)c2)ccn1 [Rebastinib]
